From PMC6738096 (British Journal of Cancer, 2019)
Entries after “also recorded” stand apart in the source; their conditions may differ.

Assay: Phase 1 dose-escalation trial: safety and tolerability (TEAEs, SAEs, DLT, MTD, RP2D)
Conditions: for Patients with any AE leading to death: none deemed related to treatment
[1] = safety population, regardless of causality

Description: Endpoints included the incidence of DLTs (defined in the ‘Safety' section) in the first 28-day treatment cycle (cycle 1), the frequency and severity of adverse events (AEs) and serious AEs (SAEs) and changes in laboratory values, vital signs, physical examination findings and Eastern Cooperative Oncology Group (ECOG) performance status (PS).
The starting dose was 30 mg, which was determined by review of nonclinical toxicokinetic assessments. A treatment cycle comprised 28 days in the absence of disease progression or unacceptable toxicity. Patients received starting doses ranging from 30 mg once every 24 hours (Q24h) to 480 mg Q24h, and escalation proceeded based on a 3 + 3 design.
The subsequent cohort started at a reduced dosing regimen. Additional dosing schedules were once every 12 hours (Q12h) at 30 and 60 mg and once every 8 hours (Q8h) at 20 and 40 mg.
Toxicities were graded and recorded according to NCI CTCAE version 4.03. Patients were assessed for DLTs during the first 28-day cycle. A DLT was defined as any grade ≥ 3 nonhaematologic toxicity, according to NCI CTCAE version 4.03.

In the case of `CC(C)NC(=O)[C@H]1CC[C@@H](n2c(NC(=O)c3ccc(F)cc3)nc3ccc(CN4CCC(C(C)(C)O)CC4)cc32)CC1` [TSR-011], the “SAE: Bone pain” value (40 mg Q8h (n = 31)) is reported as 0 n (%), the “SAE: Deep-vein thrombosis” value (40 mg Q8h (n = 31)) is reported as 0 n (%) and the “SAE: Dehydration” value (40 mg Q8h (n = 31)) is reported as 0 n (%). For the same molecule, the “SAE: Disease progression” value (40 mg Q8h (n = 31)) was 2 (6.5) n (%), the “SAE: Dyspnoea” value (40 mg Q8h (n = 31)) was 0 n (%) and the “SAE: Gastric haemorrhage” value (40 mg Q8h (n = 31)) was 0 n (%). For the same molecule, the “SAE: Gastric ulcer helicobacter” value (40 mg Q8h (n = 31)) was 1 (3.2) n (%), the “SAE: Infection” value (40 mg Q8h (n = 31)) was 1 (3.2) n (%) and the “SAE: Lower respiratory tract infection” value (40 mg Q8h (n = 31)) was 1 (3.2) n (%). For the same molecule, the “SAE: Mastoiditis” value (40 mg Q8h (n = 31)) was 0 n (%), the “SAE: Mental impairment” value (40 mg Q8h (n = 31)) was 0 n (%) and the “SAE: Metastases to the central nervous system” value (40 mg Q8h (n = 31)) was 1 (3.2) n (%). For the same molecule, the “SAE: Pericardial effusion” value (40 mg Q8h (n = 31)) was 1 (3.2) n (%), the “SAE: Pleural effusion” value (40 mg Q8h (n = 31)) was 1 (3.2) n (%) and the “SAE: Pneumonia” value (40 mg Q8h (n = 31)) was 1 (3.2) n (%). The “SAE: Portal vein thrombosis” value (40 mg Q8h (n = 31)) was 0 n (%), the “SAE: Seizure” value (40 mg Q8h (n = 31)) was 1 (3.2) n (%) and the “SAE: Subarachnoid haemorrhage” value (40 mg Q8h (n = 31)) was 1 (3.2) n (%). The “Total number of TEAEs” value (40 mg Q8h (n = 31)) was 167, the “Total number of treatment-emergent SAEs” value (40 mg Q8h (n = 31)) was 16 and the “Patients with any AE leading to death” value (40 mg Q8h (n = 31)) was 2 (6.5) Number (%). For the same molecule, the “Grade ≥ 3 pneumonitis or hypoxia” value (40 mg TID) was “no grade ≥ 3 pneumonitis or hypoxia was observed”, the “Grade 3 ECG QTc prolongation within the DLT period” value (320 mg Q24h cohort, an additional patient determined retrospectively) was “One patient” and the DLTs (30-, 60-, 120- and 240-mg IR Q24h cohorts) was “none of the patients experienced DLTs”. For the same molecule, the “Maximum tolerated dose (MTD)” value (320- and 480-mg Q24h doses) was “exceeded the maximum tolerated dose; also recorded: exceeded the MTD”, the “Grade 3 QTc prolongation” value (480-mg Q24h cohort) was “two of four patients” and the “Drug-related TEAE: Abnormal dreams” value (All patients (N = 72)) was 2 (2.8) n (%). For the same molecule, the “Drug-related TEAE: Anaemia” value (All patients (N = 72)) was 2 (2.8) n (%), the “Drug-related TEAE: Asthenia” value (All patients (N = 72)) was 2 (2.8) n (%) and the “Drug-related TEAE: Constipation” value (All patients (N = 72)) was 5 (6.9) n (%). For the same molecule, the “Drug-related TEAE: Decreased appetite” value (All patients (N = 72)) was 4 (5.6) n (%), the “Drug-related TEAE: Diarrhoea” value (All patients (N = 72)) was 3 (4.2) n (%) and the “Drug-related TEAE: Dysaesthesia” value (All patients (N = 72)) was 2 (2.8) n (%). The “Drug-related TEAE: Dysgeusia” value (All patients (N = 72)) was 3 (4.2) n (%), the “Drug-related TEAE: Electrocardiogram QTc prolonged” value (All patients (N = 72)) was 12 (16.7) n (%) and the “Drug-related TEAE: Fatigue” value (All patients (N = 72)) was 4 (5.6) n (%). The “Drug-related TEAE: Headache” value (All patients (N = 72)) was 3 (4.2) n (%), the “Drug-related TEAE: Hot flush” value (All patients (N = 72)) was 2 (2.8) n (%) and the “Drug-related TEAE: Increased transaminases” value (All patients (N = 72)) was 2 (2.8) n (%). The “Drug-related TEAE: Insomnia” value (All patients (N = 72)) was 2 (2.8) n (%), the “Drug-related TEAE: Myalgia” value (All patients (N = 72)) was 2 (2.8) n (%) and the “Drug-related TEAE: Nausea” value (All patients (N = 72)) was 3 (4.2) n (%). For the same molecule, the “Drug-related TEAE: Peripheral oedema” value (All patients (N = 72)) was 3 (4.2) n (%), the “Drug-related TEAE: Rash” value (All patients (N = 72)) was 2 (2.8) n (%) and the “Drug-related TEAE: Vomiting” value (All patients (N = 72)) was 4 (5.6) n (%). The “Grade 3 TEAE: Anaemia” value (All patients (N = 72)) was 5 (6.9) n (%), the “Grade 3 TEAE: Ascites” value (All patients (N = 72)) was 2 (2.8) n (%) and the “Grade 3 TEAE: Asthenia” value (All patients (N = 72)) was 3 (4.2) n (%). The “Grade 3 TEAE: Dyspnoea” value (All patients (N = 72)) was 3 (4.2) n (%), the “Grade 3 TEAE: Electrocardiogram QTc prolonged” value (All patients (N = 72)) was 4 (5.6) n (%) and the “Grade 3 TEAE: Fatigue” value (All patients (N = 72)) was 2 (2.8) n (%). The “Grade 3 TEAE: Metastases to the central nervous system” value (All patients (N = 72)) was 2 (2.8) n (%), the “Patients with any TEAE” value (All patients (N = 72)) was 70 (97.2) Number (%) and the “Patients with any TEAE leading to treatment discontinuation” value (All patients (N = 72)) was 11 (15.3) Number (%). For the same molecule, the “Patients with any serious TEAE” value (All patients (N = 72)) was 28 (38.9) Number (%), the “Patients with any study drug-related TEAE” value (All patients (N = 72)) was 40 (55.6) Number (%) and the “Patients with ≥ 1 treatment-emergent SAE” value (All patients (N = 72)) was 28 (38.9) n (%). For the same molecule, the “SAE class: Blood and lymphatic system disorders” value (All patients (N = 72)) was 2 (2.8) n (%), the “SAE class: Cardiac disorders” value (All patients (N = 72)) was 1 (1.4) n (%) and the “SAE class: Gastrointestinal disorders” value (All patients (N = 72)) was 5 (6.9) n (%). The “SAE class: General disorders and administration-site conditions” value (All patients (N = 72)) was 7 (9.7) n (%), the “SAE class: Hepatobiliary disorders” value (All patients (N = 72)) was 1 (1.4) n (%) and the “SAE class: Infections and infestations” value (All patients (N = 72)) was 5 (6.9) n (%). The “SAE class: Metabolism and nutrition disorders” value (All patients (N = 72)) was 1 (1.4) n (%), the “SAE class: Musculoskeletal and connective tissue disorders” value (All patients (N = 72)) was 1 (1.4) n (%) and the “SAE class: Neoplasms benign, malignant and unspecified (including cysts and polyps)” value (All patients (N = 72)) was 3 (4.2) n (%). For the same molecule, the “SAE class: Nervous system disorders” value (All patients (N = 72)) was 8 (11.1) n (%), the “SAE class: Respiratory, thoracic and mediastinal disorders” value (All patients (N = 72)) was 4 (5.6) n (%) and the “SAE class: Vascular disorders” value (All patients (N = 72)) was 1 (1.4) n (%). The “SAE: Abdominal pain” value (All patients (N = 72)) was 1 (1.4) n (%), the “SAE: Anaemia” value (All patients (N = 72)) was 2 (2.8) n (%) and the “SAE: Asthenia” value (All patients (N = 72)) was 1 (1.4) n (%). For the same molecule, the “SAE: Basal cell carcinoma” value (All patients (N = 72)) was 1 (1.4) n (%), the “SAE: Bone pain” value (All patients (N = 72)) was 1 (1.4) n (%) and the “SAE: Deep-vein thrombosis” value (All patients (N = 72)) was 1 (1.4) n (%). The “SAE: Dehydration” value (All patients (N = 72)) was 1 (1.4) n (%), the “SAE: Disease progression” value (All patients (N = 72)) was 6 (8.3) n (%) and the “SAE: Dyspnoea” value (All patients (N = 72)) was 3 (4.2) n (%). For the same molecule, the “SAE: Gastric haemorrhage” value (All patients (N = 72)) was 1 (1.4) n (%), the “SAE: Gastric ulcer helicobacter” value (All patients (N = 72)) was 1 (1.4) n (%) and the “SAE: Infection” value (All patients (N = 72)) was 1 (1.4) n (%). For the same molecule, the “SAE: Lower respiratory tract infection” value (All patients (N = 72)) was 1 (1.4) n (%), the “SAE: Mastoiditis” value (All patients (N = 72)) was 1 (1.4) n (%) and the “SAE: Mental impairment” value (All patients (N = 72)) was 2 (2.8) n (%). For the same molecule, the “SAE: Metastases to the central nervous system” value (All patients (N = 72)) was 2 (2.8) n (%), the “SAE: Pericardial effusion” value (All patients (N = 72)) was 1 (1.4) n (%) and the “SAE: Pleural effusion” value (All patients (N = 72)) was 1 (1.4) n (%). For the same molecule, the “SAE: Pneumonia” value (All patients (N = 72)) was 1 (1.4) n (%), the “SAE: Portal vein thrombosis” value (All patients (N = 72)) was 1 (1.4) n (%) and the “SAE: Seizure” value (All patients (N = 72)) was 2 (2.8) n (%). For the same molecule, the “SAE: Subarachnoid haemorrhage” value (All patients (N = 72)) was 1 (1.4) n (%), the “Total number of TEAEs” value (All patients (N = 72)) was 621 and the “Total number of treatment-emergent SAEs” value (All patients (N = 72)) was 49. For the same molecule, the “Patients with any AE leading to death” value (All patients (N = 72)) was 6 (8.3) Number (%), the “Most common grade 3–4 TEAEs, patients” value (RP2D 40 mg Q8h) was 3.2–6.5% and the “Recommended phase 2 dose (RP2D)” value (every 8 hours (Q8h, TID), IR) was 40 mg. For the same molecule, the “Grade 3 TEAEs, patients” value (safety population) was 51.4%, the “Grade 4 TEAE of anaemia” value (safety population) was “One patient” and the “SAE disease progression, patients” value (safety population) was 8.3%. For the same molecule, the “Study drug-related SAE, patients” value (safety population) was 1.4%, the “Study drug-related TEAEs, patients” value (safety population) was 55.6% and the “TEAEs leading to study drug discontinuation, patients” value (safety population) was 15.3%. The “TEAEs of grade 1 severity” value (safety population) was 64 % of events, the “Treatment-emergent SAEs, patients” value (safety population) was 38.9% and the “Patients with ≥ 1 TEAE” value (safety population (N = 72)) was 97.2%. The “TEAE QTc prolongation, patients” value [1] was 18.1%, the “TEAE anaemia, patients” value [1] was 15.3% and the “TEAE asthenia, patients” value [1] was 15.3%. The “TEAE class gastrointestinal disorders, patients” value [1] was 61.1%, the “TEAE class general disorders and administration-site conditions, patients” value [1] was 50.0% and the “TEAE constipation, patients” value [1] was 19.4%. The “TEAE decreased appetite, patients” value [1] was 15.3%, the “TEAE diarrhoea, patients” value [1] was 18.1% and the “TEAE fatigue, patients” value [1] was 19.4%. For the same molecule, the “TEAE headache, patients” value [1] was 15.3% and the “TEAE vomiting, patients” value [1] was 18.1%.
